These results are taken from publication PMC8881077 (Journal of Enzyme Inhibition and Medicinal Chemistry, 2022).

Structures are written as SMILES.

The target of assay [1] is T1, ratBuChE (Rattus norvegicus, UniProt Q9JKC1).
T1 construct: BuChE from rat serum or human serum (Sigma Co.); from tissue; host or cells: rat serum
In words: ratBuChE inhibition, modified Ellman's method. The format is biochemical. (DTNB colorimetry detects thiols as they appear.)
Method: (§1) The AChE and BuChE inhibitory activities of the synthesised compounds were evaluated using the Ellman assay with slight modification. AChE from 5% rat cortex homogenate or human erythrocytes (Sigma Co.). BuChE from rat serum or human serum (Sigma Co.).

Assay [2] has as its target T2, ratAChE (Rattus norvegicus, UniProt P37136).
T2 construct: AChE from 5% rat cortex homogenate or human erythrocytes (Sigma Co.); from tissue; host or cells: 5% rat cortex homogenate
T2 sequence (P37136 32-614): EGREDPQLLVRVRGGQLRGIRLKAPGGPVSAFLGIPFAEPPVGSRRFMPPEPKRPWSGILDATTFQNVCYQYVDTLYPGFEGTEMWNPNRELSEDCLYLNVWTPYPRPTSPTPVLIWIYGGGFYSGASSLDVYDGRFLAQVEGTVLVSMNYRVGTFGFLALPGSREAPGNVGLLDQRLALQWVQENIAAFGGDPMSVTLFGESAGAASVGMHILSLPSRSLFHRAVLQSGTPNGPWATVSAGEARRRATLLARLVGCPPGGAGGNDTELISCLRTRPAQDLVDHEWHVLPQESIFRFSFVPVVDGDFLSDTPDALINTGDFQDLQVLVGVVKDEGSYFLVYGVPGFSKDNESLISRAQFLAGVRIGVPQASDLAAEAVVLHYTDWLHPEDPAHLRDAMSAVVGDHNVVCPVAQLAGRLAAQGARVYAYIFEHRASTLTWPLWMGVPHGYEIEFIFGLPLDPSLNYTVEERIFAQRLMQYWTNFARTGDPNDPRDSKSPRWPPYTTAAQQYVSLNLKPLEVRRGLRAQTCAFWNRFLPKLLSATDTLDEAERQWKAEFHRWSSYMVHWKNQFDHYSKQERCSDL
Put plainly: biochemical. The conditions noted are these: for SI: Selectivity Index = IC50 (BuChE)/IC50 (AChE), rat enzymes; for IC50: from 5% rat cortex homogenate, read-out: IC50 ± SD ratAChE.
Method: as §1

For assay [3] the following is noted: Trolox as standard.
Method: The skeleton compounds naringenin and apigenin were also evaluated for comparison purposes, and vitamin E analogue Trolox was used as a standard.
The antioxidant potency of target compounds was tested using an oxygen radical absorbance capacity fluorescein (ORAC-FL) assay.

T1 sequence (Q9JKC1 24-597): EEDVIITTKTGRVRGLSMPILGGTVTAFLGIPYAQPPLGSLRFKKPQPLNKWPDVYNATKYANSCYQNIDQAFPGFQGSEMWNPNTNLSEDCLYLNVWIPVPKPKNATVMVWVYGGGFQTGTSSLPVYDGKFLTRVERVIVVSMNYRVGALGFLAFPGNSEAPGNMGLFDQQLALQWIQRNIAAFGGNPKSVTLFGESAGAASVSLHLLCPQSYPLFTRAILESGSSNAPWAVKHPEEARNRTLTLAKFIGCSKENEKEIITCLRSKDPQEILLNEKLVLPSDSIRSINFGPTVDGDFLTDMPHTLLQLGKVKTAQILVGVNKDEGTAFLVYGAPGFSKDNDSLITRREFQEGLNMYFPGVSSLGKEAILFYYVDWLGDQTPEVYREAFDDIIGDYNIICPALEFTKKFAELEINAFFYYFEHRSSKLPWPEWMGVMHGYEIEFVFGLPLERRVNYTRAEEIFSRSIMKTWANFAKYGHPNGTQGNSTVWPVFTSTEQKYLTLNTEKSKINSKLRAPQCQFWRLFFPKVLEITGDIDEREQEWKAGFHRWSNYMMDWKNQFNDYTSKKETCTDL

`O=c1cc(-c2ccc(OCCCCCCN3CCC(CCCc4ccccc4)CC3)cc2)oc2cc(OCCCCCCN3CCC(CCCc4ccccc4)CC3)cc(O)c12` [Compound 10u, 5-hydroxy-7-((6–(4-(3-phenylpropyl)piperidin-1-yl)hexyl)oxy)-2–(4-((6–(4–(3-phenylpropyl)piperidin-1-yl)hexyl)oxy)phenyl)-4H-chromen-4-one] showed a half-inhibitory concentration (IC50) in assay [1] of 17.2 ± 0.45 µM. For the same compound, in assay [2], the SI was 2.7 and the 50% inhibitory concentration (IC50) stood at 6.3 ± 0.21 µM. In addition, the ORAC in assay [3] is 1.2 ± 0.03 μM of Trolox equivalent/μM of tested compound.
Turning to `CCN1CCN(CCCOc2ccc(C3CC(=O)c4c(O)cc(OCCCN5CCN(CC)CC5)cc4O3)cc2)CC1` (centres unmarked) [Compound 7e, 7–(3-(4-ethylpiperazin-1-yl)propoxy)-2–(4-(3–(4-ethylpiperazin-1-yl)propoxy)phenyl)-5-hydroxychroman-4-one], the IC50 in assay [1] amounted to 15.8 ± 0.62 µM. Also, in assay [2], the SI is 1.9 and the IC50 stood at 8.2 ± 0.47 µM. Further, in assay [3], the ORAC is given as 1.5 ± 0.02 μM of Trolox equivalent/μM of tested compound.
With `CCN(CCCCCCCCCCCCOc1cc(O)c2c(c1)OC(c1ccc(O)cc1)CC2=O)Cc1ccccc1` (centres unmarked) [Compound 5j, 7-((12-(benzyl(ethyl)amino)dodecyl)oxy)-5-hydroxy-2–(4-hydroxyphenyl)chroman-4-one], the figures for the 50% inhibitory concentration (IC50) in assay [1] and in assay [2] were 15.9 ± 0.37 µM and 6.5 ± 0.09 µM, respectively. In addition, in assay [3], the ORAC is reported as 2.2 ± 0.05 μM of Trolox equivalent/μM of tested compound.
Take `O=C1CC(c2ccc(OCCCN3CCC(Cc4ccccc4)CC3)cc2)Oc2cc(OCCCN3CCC(Cc4ccccc4)CC3)cc(O)c21` (centres unmarked) [Compound 7c, 7–(3-(4-benzylpiperidin-1-yl)propoxy)-2–(4-(3–(4-benzylpiperidin-1-yl)propoxy)phenyl)-5-hydroxychroman-4-one]: the IC50 in assay [1] was found to be 19.4 ± 0.28 µM. In addition, in assay [2], the SI was found to be 2.9 and the half-inhibitory concentration (IC50) was found to be 6.7 ± 0.16 µM. Moreover, in assay [3], the ORAC was 1.2 ± 0.02 μM of Trolox equivalent/μM of tested compound.
The corresponding values for `O=C1CC(c2ccc(OCCCN3CCC(c4ccccc4)CC3)cc2)Oc2cc(OCCCN3CCC(c4ccccc4)CC3)cc(O)c21` (centres unmarked) [Compound 7d, 5-hydroxy-7–(3-(4-phenylpiperidin-1-yl)propoxy)-2–(4-(3–(4-phenylpiperidin-1-yl)propoxy)phenyl)chroman-4-one] are 20.3 ± 0.26 µM, 2.2, 9.3 ± 0.37 µM and 1.0 ± 0.03 μM of Trolox equivalent/μM of tested compound.
The corresponding values for `O=C1CC(c2ccc(OCCCN3CCc4ccccc4C3)cc2)Oc2cc(OCCCN3CCc4ccccc4C3)cc(O)c21` (centres unmarked) [Compound 7a, 7–(3-(3,4-dihydroisoquinolin-2(1H)-yl)propoxy)-2–(4-(3–(3,4-dihydroisoquinolin-2(1H)-yl)propoxy)phenyl)-5-hydroxychroman-4-one] are 20.2 ± 0.23 µM, 2.0, 10.1 ± 0.41 µM and 1.1 ± 0.02 μM of Trolox equivalent/μM of tested compound.
Take `O=c1cc(-c2ccc(OCCCCN3CCc4ccccc4C3)cc2)oc2cc(OCCCCN3CCc4ccccc4C3)cc(O)c12` [Compound 10g, 7–(4-(3,4-dihydroisoquinolin-2(1H)-yl)butoxy)-2–(4-(4–(3,4-dihydroisoquinolin-2(1H)-yl)butoxy)phenyl)-5-hydroxy-4H-chromen-4-one]: the IC50 came out at 17.4 ± 0.35 µM in assay [1] and 4.6 ± 0.21 µM in assay [2]. Moreover, in assay [2], the SI turned out to be 3.8. In assay [3], the ORAC is listed as 1.2 ± 0.03 μM of Trolox equivalent/μM of tested compound.
As to `O=c1cc(-c2ccc(OCCCCN3CCN(Cc4ccccc4)CC3)cc2)oc2cc(OCCCCN3CCN(Cc4ccccc4)CC3)cc(O)c12` [Compound 10i, 7–(4-(4-Benzylpiperazin-1-yl)butoxy)-2–(4–(4-(4-benzylpiperazin-1-yl)butoxy)phenyl)-5-hydroxy-4H-chromen-4-one], the half-inhibitory concentration (IC50) is 10.3 ± 0.19 µM in assay [1] and 6.9 ± 0.14 µM in assay [2]. In addition, the ORAC in assay [3] is listed as 1.5 ± 0.02 μM of Trolox equivalent/μM of tested compound.
Consider `O=C1CC(c2ccc(OCCCCN3CCC(Cc4ccccc4)CC3)cc2)Oc2cc(OCCCCN3CCC(Cc4ccccc4)CC3)cc(O)c21` (centres unmarked) [Compound 7j], for which, in assay [2], the SI was found to be 11.2 and the IC50 amounted to 1.3 µM. Further, in assay [3], the ORAC is on record as 1.1 ± 0.03 μM of Trolox equivalent/μM of tested compound.
Consider `CCN(CCCCOc1ccc(C2CC(=O)c3c(O)cc(OCCCCN(CC)Cc4ccccc4OC)cc3O2)cc1)Cc1ccccc1OC` (centres unmarked) [Compound 7h, 7–(4-(ethyl(2-methoxybenzyl)amino)butoxy)-2–(4-(4-(ethyl(2-methoxybenzyl)amino)butoxy)phenyl)-5-hydroxychroman-4-one], for which the IC50 in assay [1] turned out to be 16.9 ± 0.34 µM. In addition, in assay [2], the SI stood at 19.7 and the IC50 was found to be 0.86 ± 0.05 µM. Also, the ORAC in assay [3] is on record as 1.0 ± 0.04 μM of Trolox equivalent/μM of tested compound.
As to `O=c1cc(-c2ccc(OCCCN3CCC(CCCc4ccccc4)CC3)cc2)oc2cc(OCCCN3CCC(CCCc4ccccc4)CC3)cc(O)c12` [Compound 10e, 5-hydroxy-7–(3-(4–(3-phenylpropyl)piperidin-1-yl)propoxy)-2–(4-(3–(4–(3-phenylpropyl)piperidin-1-yl)propoxy)phenyl)-4H-chromen-4-one], the IC50 came out at 13.8 ± 0.43 µM in assay [1] and 7.9 ± 0.26 µM in assay [2]. Besides, in assay [3], the ORAC is given as 1.1 ± 0.02 μM of Trolox equivalent/μM of tested compound.
Consider `O=C1CC(c2ccc(O)cc2)Oc2cc(OCCCCN3CCc4ccccc4C3)cc(O)c21` (centres unmarked) [Compound 5b, 7–(4-(3,4-dihydroisoquinolin-2(1H)-yl)butoxy)-5-hydroxy-2–(4-hydroxyphenyl)chroman-4-one], for which the IC50 came to 17.4 ± 0.52 µM in assay [1] and 5.8 ± 0.19 µM in assay [2]. The SI in assay [2] was found to be 3.0. In addition, in assay [3], the ORAC is 2.1 ± 0.04 μM of Trolox equivalent/μM of tested compound.
The corresponding values for `O=c1cc(-c2ccc(OCCCCCN3CCC(CCCc4ccccc4)CC3)cc2)oc2cc(OCCCCCN3CCC(CCCc4ccccc4)CC3)cc(O)c12` [Compound 10o, 5-hydroxy-7-((5–(4-(3-phenylpropyl)piperidin-1-yl)pentyl)oxy)-2–(4-((5–(4–(3-phenylpropyl)piperidin-1-yl)pentyl)oxy)phenyl)-4H-chromen-4-one] are 16.1 ± 0.25 µM, 4.1 ± 0.63 µM, 3.9 and 1.2 ± 0.03 μM of Trolox equivalent/μM of tested compound.
`O=c1cc(-c2ccc(OCCCN3CCC(Cc4ccccc4)CC3)cc2)oc2cc(OCCCN3CCC(Cc4ccccc4)CC3)cc(O)c12` [Compound 10c, 7–(3-(4-benzylpiperidin-1-yl)propoxy)-2–(4-(3–(4-benzylpiperidin-1-yl)propoxy)phenyl)-5-hydroxy-4H-chromen-4-one]: in assay [1], the IC50 was 13.6 ± 0.67 µM. For the same compound, in assay [2], the SI came out at 2.5 and the IC50 turned out to be 5.5 ± 0.17 µM. The ORAC in assay [3] is 1.2 ± 0.03 μM of Trolox equivalent/μM of tested compound.
In the case of `O=C1CC(c2ccc(O)cc2)Oc2cc(OCCCCN3CCN(Cc4ccccc4)CC3)cc(O)c21` (centres unmarked) [Compound 5e, 7–(4-(4-benzylpiperazin-1-yl)butoxy)-5-hydroxy-2–(4-hydroxyphenyl)chroman-4-one], the 50% inhibitory concentration (IC50) in assay [1] is 13.2 ± 0.43 µM; in assay [2], 9.2 ± 0.72 µM. In assay [2], this compound came in with an SI of 1.4. Besides, in assay [3], the ORAC was 2.5 ± 0.01 μM of Trolox equivalent/μM of tested compound.
In assay [1], `O=C1CC(c2ccc(O)cc2)Oc2cc(OCCCCCN3CCC(Cc4ccccc4)CC3)cc(O)c21` (centres unmarked) [Compound 5g, 7-((5–(4-benzylpiperidin-1-yl)pentyl)oxy)-5-hydroxy-2–(4-hydroxyphenyl)chroman-4-one] came in with an IC50 of 18.7 ± 0.33 µM. Besides, in assay [2], the SI was 7.5 and the IC50 was determined as 2.5 ± 0.33 µM. Also, the ORAC in assay [3] is reported as 2.1 ± 0.02 μM of Trolox equivalent/μM of tested compound.
The corresponding values for `CCN(CCCCCCOc1ccc(-c2cc(=O)c3c(O)cc(OCCCCCCN(CC)Cc4ccccc4)cc3o2)cc1)Cc1ccccc1` [Compound 10r, 7-((6-(benzyl(ethyl)amino)hexyl)oxy)-2–(4-((6-(benzyl(ethyl)amino)hexyl)oxy)phenyl)-5-hydroxy-4H-chromen-4-one] are 14.1 ± 0.22 µM, 8.3, 1.7 ± 0.21 µM and 1.2 ± 0.04 μM of Trolox equivalent/μM of tested compound.
Taken in the same sequence, the figures for `O=c1cc(-c2ccc(OCCCCCN3CCC(c4ccccc4)CC3)cc2)oc2cc(OCCCCCN3CCC(c4ccccc4)CC3)cc(O)c12` [Compound 10n, 5-hydroxy-7-((5–(4-phenylpiperidin-1-yl)pentyl)oxy)-2–(4-((5–(4-phenylpiperidin-1-yl)pentyl)oxy)phenyl)-4H-chromen-4-one] were 17.9 ± 0.46 µM, 4.9, 3.6 ± 0.11 µM and 1.1 ± 0.04 μM of Trolox equivalent/μM of tested compound.

In general, IC50 refers to the concentration needed to halve the response being measured.
